Results from ChEMBL document CHEMBL4680187, “Optimization of EphA2 antagonists based on a lithocholic acid core led to the identification of UniPR505, a new 3α-carbamoyloxy derivative with antiangiogenetic properties” (Eur J Med Chem, 2020).

Molecular target: T1, Ephrin type-A receptor 1 (Homo sapiens, UniProt P21709)
T1 sequence (P21709 whole entry): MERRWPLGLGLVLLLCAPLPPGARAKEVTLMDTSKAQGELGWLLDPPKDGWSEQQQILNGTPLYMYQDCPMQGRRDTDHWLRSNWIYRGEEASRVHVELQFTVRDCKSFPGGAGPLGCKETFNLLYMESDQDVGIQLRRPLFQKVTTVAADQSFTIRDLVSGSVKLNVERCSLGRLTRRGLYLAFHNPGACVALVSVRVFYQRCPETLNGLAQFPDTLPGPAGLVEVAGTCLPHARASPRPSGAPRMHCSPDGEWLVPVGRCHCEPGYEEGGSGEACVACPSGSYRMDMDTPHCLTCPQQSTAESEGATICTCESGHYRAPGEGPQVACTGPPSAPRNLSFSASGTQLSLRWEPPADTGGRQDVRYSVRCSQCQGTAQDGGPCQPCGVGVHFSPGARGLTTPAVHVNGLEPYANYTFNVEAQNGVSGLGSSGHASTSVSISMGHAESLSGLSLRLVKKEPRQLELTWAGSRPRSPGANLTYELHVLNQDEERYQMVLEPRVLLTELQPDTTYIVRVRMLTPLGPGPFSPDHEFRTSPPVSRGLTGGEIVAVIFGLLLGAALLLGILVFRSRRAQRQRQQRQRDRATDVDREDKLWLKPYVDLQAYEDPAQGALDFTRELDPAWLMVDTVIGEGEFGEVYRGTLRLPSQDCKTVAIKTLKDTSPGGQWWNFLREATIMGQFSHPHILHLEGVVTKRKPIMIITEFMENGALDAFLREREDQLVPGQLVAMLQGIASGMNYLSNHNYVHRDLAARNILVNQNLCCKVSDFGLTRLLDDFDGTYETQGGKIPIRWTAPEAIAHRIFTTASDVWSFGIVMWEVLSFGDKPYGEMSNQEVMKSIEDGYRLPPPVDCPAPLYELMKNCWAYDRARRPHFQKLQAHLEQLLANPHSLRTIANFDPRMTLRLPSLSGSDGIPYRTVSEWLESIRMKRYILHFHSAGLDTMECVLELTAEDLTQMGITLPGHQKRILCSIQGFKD
Assay: Displacement of biotinylated ephrin-A1-Fc from human EphA1 Fc preincubated for 1 hr followed by ephrin-A1-FC addition and measured after 4 hrs by ELISA

- IC50: > 30 µM
SMILES: CCNC(=O)O[C@@H]1CC[C@@]2(C)[C@H](CC[C@@H]3[C@@H]2CC[C@]2(C)[C@@H]([C@H](C)CCC(=O)N[C@H](CC(=O)O)Cc4c[nH]c5ccccc45)CC[C@@H]32)C1
